Patent US20050245452A1, “Pharmaceutical use of novispirins” (Novozymes A/S, priority 2004, published 2005)
Ends that are not written are not given here.

Columns and labels:
[1] = tested on: Staphylococcus aureus (ATCC 25923); experiment: Staphylococcus aureus wound infection in pigs (wound chambers, 4 hour time course); type: in vivo, Göttinger minipigs; details: 100 micrograms/ml, 1 ml applied
Method: The bacterial strain, Staphylococcus aureus, used in the study was ATCC 25923. The amino acid sequence of Novispirin G10 is shown in SEQ ID NO: 16.
Novispirin G10 was diluted in 0.01% acetic acid containing 0.1% BSA with a final concentration of 1 mg (substrate)/ml (solution); 100 micrograms/ml; 10 micrograms/ml and 1 microgram/ml. The carrier control was 0.01% acetic acid containing 0.1% BSA. As a positive control was used Synthetic Protegrin 1 (Charité, Institut f. Biochemie d. Humboldt Universität Berlin) diluted in 0.01% acetic acid containing 0.1% BSA with a final concentration of 100 micrograms/ml.
The chambers are made of one piece of titanium, have a screw top cover (also made of titanium) and were built in teamwork with Cranio Construct Bochum. The chambers have a height of 14 mm, an inner diameter of 25 mm and an outer diameter of 32 mm without baseplate (with baseplate: 50 mm).
After providing permission to conduct experiments with vertebrates in compliance with German animal protection laws, Göttinger minipigs (Fa. Ellegaard, Dalmose, Denmark; female, 6 months old, 25-30 kg weight) were chosen to implant the chambers on. The pigs were kept at least 2 weeks in the stable, fed a standard porcine diet and housed at 20° C. to 30° C. in an atmosphere of approximately 65% humidity with a light cycle of 12 hours on and 12 hours off. The animals used for this study appeared, during the experiments, clinically healthy—rectal temperature and body weight remained normal over the observed period.
Before wounding the skin was surgically prepared, washed with soap and disinfected with Octenisept (S&M, Norderstedt, Germany) for five minutes. Twelve BO-Chambers were implanted on the pigs back and flank between the base of the scapula and the iliac crest. The wounds were spaced a minimum of 5 cm apart and were created in four rows parallel to the columna vertebralis, two rows on each side of the columna vertebrtalis. The exact size and shape of the wounds were ensured by a special custom-made “round-scalpel” (also built in teamwork with Cranio Construct Bochum), which has a diameter of 33 mm. Epidermal, dermal subcutaneous tissues were removed, possible bleedings stanched by bipolar diathermy. The chambers were placed with an additionally secant v-incision at positions 6 respectively 12 o'clock on the musculus thoracicus longus fascia and the muscle fascia of the external ripcage muscles. The incisions were sutured with 2/0 Monocryl followed by the closure of the chambers. Povidone-iodine salve (Betaisodonna-salve, Mundipharma, Austria) was smothered on the wound edges. The chambers were dressed with paraffin gauze (Jelonet, Smith & Nephew, Lohfelden, Germany) and sterile compresses. Dressings were changed every second day under sedation (as described above).
Bacterial Background of each chamber was measured every second day, to detect potential contamination. Only one contaminated chamber was detected. Seven days post operation ten chambers were inoculated with bacteria.
For bacteria progeny Staphylococcus aureus (ATCC 25923) was plated on LB-Agar plate and incubated at 37° C. for 18 hours. One colony was picked and transfered into 3 ml LB-Medium for over night culture at 37° C. at 300 rpm. Over night culture was diluted in 50 ml fresh LB-Medium and incubated for 2.5 hours at 37° C. at 200 rpm.
Bacteria were pelleted, 4000 rpm, 5 min, Mergafuge 1.0 R (Heraeus, Hanau, Germany), and resuspended in PBS. Amount of containg bacteria was detremined by OD600 nm-measurement and calculated as follows: Colony forming Unit/ml=OD600 nm×2.5×10^8 (bacteria)
To inoculate one chamber 5×10^8 were used.
The establishment of the infection was proven by the measurement of bacterial counts per chamber. All inoculated chambers were infected after two days. Chamber No. 2 keeps bacteria free.
At day four after infection the antimicrobial effect of the testing substrate was measured in a time course of 4 hours in duration. […]

[2] = tested on: P. acnes (erythromycin sensitive); experiment: MIC on Propionebacterium acnes, erythromycin sensitive strain; type: cell-based
Method: (§1) Minimal Inhibitory Concentration (MIC) of Novispirin G10 (SEQ ID NO: 16) was evaluated against P. acnes. Two strains were tested—one of which is clinically resistant to clindamycin and erythromycin.

[3] = tested on: P. acnes (erythromycin resistant); experiment: MIC on Propionebacterium acnes, erythromycin resistant strain; type: cell-based; details: clinically resistant to clindamycin and erythromycin
Method: as §1

| Molecule | Mean CFU per ml sample volume (chamber fluid) ([1]; 0 hours) | Mean CFU per ml sample volume (chamber fluid) ([1]; 1 hour) | Mean CFU per ml sample volume (chamber fluid) ([1]; 2 hours) | Mean CFU per ml sample volume (chamber fluid) ([1]; 3 hours) | Mean CFU per ml sample volume (chamber fluid) ([1]; 4 hours) | Minimal Inhibitory Concentration (MIC) [2] | Minimal Inhibitory Concentration (MIC) [3] |
| --- | --- | --- | --- | --- | --- | --- | --- |
| Protegrin 1: Synthetic Protegrin 1 (Charité, Humboldt Universität Berlin), used as a positive control at 100 micrograms/ml (RGGRLCYCRRRFCVCVGR; ends and bridges not checked; cysteine pairing not given here; UniProt P32194 131-148, looked up) [reference compound] | 13200000 CFU/ml | 88667 CFU/ml | 12800 CFU/ml | 3525 CFU/ml | 129000 CFU/ml |  |  |
| CC[C@H]1OC(=O)[C@H](C)[C@@H](O[C@H]2C[C@@](C)(OC)[C@@H](O)[C@H](C)O2)[C@H](C)[C@@H](O[C@@H]2O[C@H](C)C[C@H](N(C)C)[C@H]2O)[C@](C)(O)C[C@@H](C)C(=O)[C@H](C)[C@@H](O)[C@]1(C)O [Erythromycin] |  |  |  |  |  | 0.25 | 64 |
| CCC[C@@H]1C[C@@H](C(=O)N[C@@H]([C@H]2O[C@H](SC)[C@H](O)[C@@H](O)[C@H]2O)[C@H](C)Cl)N(C)C1 [Clindamycin] |  |  |  |  |  | 0.12 | 64 |
